Laboratory results as given in patent US9073855B2, “BCL-2 selective apoptosis-inducing agents for the treatment of cancer and immune diseases” (AbbVie Inc., priority 2008, dated 2015).

Key:
GST-Bcl-2 = GST-Bcl-2 (Homo sapiens, UniProt P10415); experiment: TR-FRET binding assay, GST-Bcl-2 with F-Bak peptide probe; details: for Ki: TR-FRET Binding Affinity, GST-Bcl-2, F-Bak peptide probe; for Binding selectivity ratio (Bcl-XL Ki/Bcl-2 Ki): ratio of TR-FRET Ki values, Bcl-XL over Bcl-2
How it was run: (§1)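 Ki was derived with Wang's equation for competitive binding of two ligands. The read-out was time-resolved fluorescence after a 3 h room-temperature incubation, using a Tb-labelled antibody donor and the F-Bak peptide acceptor (excitation 340/35 nm). Test compounds entered as DMSO serial dilutions starting at 50 μM, which was the 2× concentration.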

GST-Bcl-XL = GST-Bcl-XL (Homo sapiens, UniProt Q07817); experiment: TR-FRET binding assay, GST-Bcl-XL with F-Bak peptide probe; details: TR-FRET Binding Affinity, GST-Bcl-XL, F-Bak peptide probe
Chain of GST-Bcl-XL (Q07817 whole entry): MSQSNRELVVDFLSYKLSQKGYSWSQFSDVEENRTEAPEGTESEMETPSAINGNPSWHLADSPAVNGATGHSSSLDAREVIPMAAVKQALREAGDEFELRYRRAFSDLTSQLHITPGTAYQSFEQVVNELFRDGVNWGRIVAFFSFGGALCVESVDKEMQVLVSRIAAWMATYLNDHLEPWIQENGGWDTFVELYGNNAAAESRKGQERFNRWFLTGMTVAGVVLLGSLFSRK
How it was run: as §1

Chain of GST-Bcl-2 (P10415 whole entry): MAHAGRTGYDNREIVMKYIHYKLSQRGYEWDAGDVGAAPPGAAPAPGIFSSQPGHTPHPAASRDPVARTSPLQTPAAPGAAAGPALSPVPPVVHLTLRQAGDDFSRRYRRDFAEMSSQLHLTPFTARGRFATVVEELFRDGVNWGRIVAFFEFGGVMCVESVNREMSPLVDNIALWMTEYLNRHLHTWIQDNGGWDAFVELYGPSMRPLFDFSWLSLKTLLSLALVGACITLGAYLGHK

Row | SMILES | Ki (GST-Bcl-2) [nM] | Ki (GST-Bcl-XL) [nM] | Binding selectivity ratio (Bcl-XL Ki/Bcl-2 Ki) (GST-Bcl-2)
1 | CC1(C)CCC(CN2CCN(c3ccc(C(=O)NS(=O)(=O)c4ccc(NC5(CO)CCOCC5)c([N+](=O)[O-])c4)c(Oc4cccc5[nH]ccc45)c3)CC2)=C(c2ccc(Cl)cc2)C1 [Example 241, 4-(4-{[2-(4-chlorophenyl)-4,4-dimethylcyclohex-1-en-1-yl]methyl}piperazin-1-yl)-N-[(4-{[4-(hydroxymethyl)tetrahydro-2H-pyran-4-yl]amino}-3-nitrophenyl)sulfonyl]-2-(1H-indol-4-yloxy)benzamide] | 6.09 | > 660 | –
2 | CC1(C)CCC(CN2CCN(c3ccc(C(=O)NS(=O)(=O)c4cnc(OCCN5CCOCC5)c(C#N)c4)c(Oc4cccc5[nH]ccc45)c3)CC2)=C(c2ccc(Cl)cc2)C1 [Example 392, 4-(4-{[2-(4-chlorophenyl)-4,4-dimethylcyclohex-1-en-1-yl]methyl}piperazin-1-yl)-N-{[5-cyano-6-(2-morpholin-4-ylethoxy)pyridin-3-yl]sulfonyl}-2-(1H-indol-4-yloxy)benzamide] | 0.38 | 122 | 320.2
3 | CC1(C)CCC(CN2CCN(c3ccc(C(=O)NS(=O)(=O)c4cnc(OCC5(F)CCOCC5)c(C#N)c4)c(Oc4cccc5[nH]ccc45)c3)CC2)=C(c2ccc(Cl)cc2)C1 [Example 393, 4-(4-{[2-(4-chlorophenyl)-4,4-dimethylcyclohex-1-en-1-yl]methyl}piperazin-1-yl)-N-({5-cyano-6-[(4-fluorotetrahydro-2H-pyran-4-yl)methoxy]pyridin-3-yl}sulfonyl)-2-(1H-indol-4-yloxy)benzamide] | 0.083 | 92.1 | 1109.6
4 | COc1ccc(Nc2ccc(S(=O)(=O)NC(=O)c3ccc(N4CCN(CC5=C(c6ccc(Cl)cc6)CC(C)(C)CC5)CC4)cc3Oc3ccc4[nH]ccc4c3)cc2[N+](=O)[O-])cc1O [Example 394, 4-(4-{[2-(4-chlorophenyl)-4,4-dimethylcyclohex-1-en-1-yl]methyl}piperazin-1-yl)-N-({4-[(3-hydroxy-4-methoxyphenyl)amino]-3-nitrophenyl}sulfonyl)-2-(1H-indol-5-yloxy)benzamide] | 2.51 | > 660000 | >263262.9
5 | CN1CCC(Nc2ccc(S(=O)(=O)NC(=O)c3ccc(N4CCN(CC5=C(c6ccc(Cl)cc6)CC(C)(C)CC5)CC4)cc3Oc3cccc4c3CCN4)cc2[N+](=O)[O-])CC1 [Example 395, 4-(4-{[2-(4-chlorophenyl)-4,4-dimethylcyclohex-1-en-1-yl]methyl}piperazin-1-yl)-2-(2,3-dihydro-1H-indol-4-yloxy)-N-({4-[(1-methylpiperidin-4-yl)amino]-3-nitrophenyl}sulfonyl)benzamide] | 0.798 | 18.8 | 23.6
6 | CC1(C)CCC(CN2CCN(c3ccc(C(=O)NS(=O)(=O)c4ccc(NC5CCN(C6CCOCC6)CC5)c([N+](=O)[O-])c4)c(Nc4cccnc4)c3)CC2)=C(c2ccc(Cl)cc2)C1 [Example 397, 4-(4-{[2-(4-chlorophenyl)-4,4-dimethylcyclohex-1-en-1-yl]methyl}piperazin-1-yl)-N-({3-nitro-4-[(1-tetrahydro-2H-pyran-4-ylpiperidin-4-yl)amino]phenyl}sulfonyl)-2-(pyridin-3-ylamino)benzamide] | 23 | > 660000 | >28730.6
7 | CC1(C)CCC(CN2CCN(c3ccc(C(=O)NS(=O)(=O)c4cnc(NCC5(F)CCOCC5)c(Cl)c4)c(Oc4cccc5[nH]ncc45)c3)CC2)=C(c2ccc(Cl)cc2)C1 [Example 413, N-[(5-chloro-6-{[(4-fluorotetrahydro-2H-pyran-4-yl)methyl]amino}pyridin-3-yl)sulfonyl]-4-(4-{[2-(4-chlorophenyl)-4,4-dimethylcyclohex-1-en-1-yl]methyl}piperazin-1-yl)-2-(1H-indazol-4-yloxy)benzamide] | 0.12 | 96.8 | 803.8
8 | CO[C@H]1CC[C@H](COc2ncc(S(=O)(=O)NC(=O)c3ccc(N4CCN(CC5=C(c6ccc(Cl)cc6)CC(C)(C)CC5)CC4)cc3Oc3cccc4[nH]ncc34)cc2Cl)CC1 [Example 414, Trans-N-({5-chloro-6-[(4-methoxycyclohexyl)methoxy]pyridin-3-yl}sulfonyl)-4-(4-{[2-(4-chlorophenyl)-4,4-dimethylcyclohex-1-en-1-yl]methyl}piperazin-1-yl)-2-(1H-indazol-4-yloxy)benzamide] | 0.007 | 95.6 | –
9 | CC1(C)CCC(CN2CCN(c3ccc(C(=O)NS(=O)(=O)c4ccc(NCC5CN(CC(F)F)CCO5)c([N+](=O)[O-])c4)c(Oc4cccc5[nH]cnc45)c3)CC2)=C(c2ccc(Cl)cc2)C1 (stereo not drawn) [Example 415, 2-(1H-benzimidazol-4-yloxy)-4-(4-{[2-(4-chlorophenyl)-4,4-dimethylcyclohex-1-en-1-yl]methyl}piperazin-1-yl)-N-{[4-({[4-(2,2-difluoroethyl)morpholin-2-yl]methyl}amino)-3-nitrophenyl]sulfonyl}benzamide] | 0.002 | 26.9 | 17326.9
10 | CC1(C)CCC(CN2CCN(c3ccc(C(=O)NS(=O)(=O)c4cnc(OCC5(F)CCOCC5)c(F)c4)c(Oc4cccc5[nH]ncc45)c3)CC2)=C(c2ccc(Cl)cc2)C1 [Example 416, 4-(4-{[2-(4-chlorophenyl)-4,4-dimethylcyclohex-1-en-1-yl]methyl}piperazin-1-yl)-N-({5-fluoro-6-[(4-fluorotetrahydro-2H-pyran-4-yl)methoxy]pyridin-3-yl}sulfonyl)-2-(1H-indazol-4-yloxy)benzamide] | 0.023 | 59.1 | –
11 | CC1(C)CCC(CN2CCN(c3ccc(C(=O)NS(=O)(=O)c4ccc(NC5CCN(C6CCOCC6)CC5)c([N+](=O)[O-])c4)c(Oc4cccc5[nH]cnc45)c3)CC2)=C(c2ccc(Cl)cc2)C1 [Example 417, 2-(1H-benzimidazol-4-yloxy)-4-(4-{[2-(4-chlorophenyl)-4,4-dimethylcyclohex-1-en-1-yl]methyl}piperazin-1-yl)-N-({3-nitro-4-[(1-tetrahydro-2H-pyran-4-ylpiperidin-4-yl)amino]phenyl}sulfonyl)benzamide] | 0.046 | 3.99 | 87.1
12 | CN1CCC(Nc2ccc(S(=O)(=O)NC(=O)c3ccc(N4CCN(CC5=C(c6ccc(Cl)cc6)CC(C)(C)CC5)CC4)cc3Oc3cccc4[nH]cnc34)cc2[N+](=O)[O-])CC1 [Example 418, 2-(1H-benzimidazol-4-yloxy)-4-(4-{[2-(4-chlorophenyl)-4,4-dimethylcyclohex-1-en-1-yl]methyl}piperazin-1-yl)-N-({4-[(1-methylpiperidin-4-yl)amino]-3-nitrophenyl}sulfonyl)benzamide] | 0.004 | 1.57 | 404.7
13 | CC1(C)CCC(CN2CCN(c3ccc(C(=O)NS(=O)(=O)c4cnc(OCC5(F)CCN(CC#N)CC5)c(Cl)c4)c(Oc4cccc5[nH]ncc45)c3)CC2)=C(c2ccc(Cl)cc2)C1 [Example 419, N-[(5-chloro-6-{[1-(cyanomethyl)-4-fluoropiperidin-4-yl]methoxy}pyridin-3-yl)sulfonyl]-4-(4-{[2-(4-chlorophenyl)-4,4-dimethylcyclohex-1-en-1-yl]methyl}piperazin-1-yl)-2-(1H-indazol-4-yloxy)benzamide] | 0.197 | 211 | 1070.8
14 | CC1(C)CCC(CN2CCN(c3ccc(C(=O)NS(=O)(=O)c4cnc(OCC5CCOC5)c(Cl)c4)c(Oc4cccc5[nH]ncc45)c3)CC2)=C(c2ccc(Cl)cc2)C1 (stereo not drawn) [Example 420, 4-(4-{[2-(4-chlorophenyl)-4,4-dimethylcyclohex-1-en-1-yl]methyl}piperazin-1-yl)-N-{[5-chloro-6-(tetrahydrofuran-3-ylmethoxy)pyridin-3-yl]sulfonyl}-2-(1H-indazol-4-yloxy)benzamide] | 0.063 | 72.1 | 1153.3
15 | CC1(C)CCC(CN2CCN(c3ccc(C(=O)NS(=O)(=O)c4cnc(OC[C@H]5CC[C@H](O)CC5)c(Cl)c4)c(Oc4cccc5[nH]ncc45)c3)CC2)=C(c2ccc(Cl)cc2)C1 [Example 421, Trans-N-({5-chloro-6-[(4-hydroxycyclohexyl)methoxy]pyridin-3-yl}sulfonyl)-4-(4-{[2-(4-chlorophenyl)-4,4-dimethylcyclohex-1-en-1-yl]methyl}piperazin-1-yl)-2-(1H-indazol-4-yloxy)benzamide] | 0.026 | 54 | 2089.5
16 | CC1(C)CCC(CN2CCN(c3ccc(C(=O)NS(=O)(=O)c4cnc(O[C@@H]5CCN(CC(F)F)C5)c(Cl)c4)c(Oc4cccc5[nH]ncc45)c3)CC2)=C(c2ccc(Cl)cc2)C1 [Example 422, N-[(5-chloro-6-{[(3R)-1-(2,2-difluoroethyl)pyrrolidin-3-yl]oxy}pyridin-3-yl)sulfonyl]-4-(4-{[2-(4-chlorophenyl)-4,4-dimethylcyclohex-1-en-1-yl]methyl}piperazin-1-yl)-2-(1H-indazol-4-yloxy)benzamide] | 0.071 | 290 | 4073.4
17 | CN(C)CC(=O)N1CCO[C@H](COc2ncc(S(=O)(=O)NC(=O)c3ccc(N4CCN(CC5=C(c6ccc(Cl)cc6)CC(C)(C)CC5)CC4)cc3Oc3cccc4[nH]cnc34)cc2Cl)C1 [Example 423, 2-(1H-benzimidazol-4-yloxy)-N-[(5-chloro-6-{[(2S)-4-(N,N-dimethylglycyl)morpholin-2-yl]methoxy}pyridin-3-yl)sulfonyl]-4-(4-{[2-(4-chlorophenyl)-4,4-dimethylcyclohex-1-en-1-yl]methyl}piperazin-1-yl)benzamide] | < 0.01 | 7.57 | 756.6
